Results as given in PubChem BioAssay (NCI).
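The compound was tested at five concentrations on cells cultured in 96-well plates, with a 48-hour exposure period. The concentration for full growth arrest is given as TGI.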

Columns and labels:
Experiment in all cases: NCI-60 cell line screen, 48 h
T-47D breast = tested on: T-47D breast
SK-MEL-5 melanoma = tested on: SK-MEL-5 melanoma
KM12 colon = tested on: KM12 colon
UO-31 renal = tested on: UO-31 renal
A549 NSCLC = tested on: A549 NSCLC
SNB-19 CNS = tested on: SNB-19 CNS
BT-549 breast = tested on: BT-549 breast
SK-OV-3 ovarian = tested on: SK-OV-3 ovarian
CAKI-1 renal = tested on: CAKI-1 renal
786-0 renal = tested on: 786-0 renal
U251 CNS = tested on: U251 CNS
SF-539 CNS = tested on: SF-539 CNS
MDA-N = tested on: MDA-N
CCRF-CEM leukemia = tested on: CCRF-CEM leukemia
NCI-H23 lung = tested on: NCI-H23 lung
MALME-3M melanoma = tested on: MALME-3M melanoma
SK-MEL-28 melanoma = tested on: SK-MEL-28 melanoma
HOP-62 NSCLC = tested on: HOP-62 NSCLC
MDA-MB-231 breast = tested on: MDA-MB-231 breast
HCT-15 colon = tested on: HCT-15 colon
SNB-75 CNS = tested on: SNB-75 CNS
OVCAR-8 ovarian = tested on: OVCAR-8 ovarian
RXF 393 renal = tested on: RXF 393 renal
SK-MEL-2 melanoma = tested on: SK-MEL-2 melanoma
OVCAR-4 ovarian = tested on: OVCAR-4 ovarian
HCT-116 colon = tested on: HCT-116 colon
DU-145 prostate = tested on: DU-145 prostate
MCF7 breast = tested on: MCF7 breast
SW-620 colon = tested on: SW-620 colon
NCI-H226 lung = tested on: NCI-H226 lung
NCI/ADR-RES ovarian = tested on: NCI/ADR-RES ovarian
HL-60(TB) leukemia = tested on: HL-60(TB) leukemia
RPMI-8226 leukemia = tested on: RPMI-8226 leukemia
OVCAR-3 ovarian = tested on: OVCAR-3 ovarian
PC-3 prostate = tested on: PC-3 prostate
UACC-62 melanoma = tested on: UACC-62 melanoma
HOP-92 NSCLC = tested on: HOP-92 NSCLC
UACC-257 melanoma = tested on: UACC-257 melanoma
HT29 colon = tested on: HT29 colon
OVCAR-5 ovarian = tested on: OVCAR-5 ovarian
TK-10 renal = tested on: TK-10 renal
SF-295 CNS = tested on: SF-295 CNS
ACHN renal = tested on: ACHN renal
IGROV1 ovarian = tested on: IGROV1 ovarian
SR leukemia = tested on: SR leukemia
MOLT-4 leukemia = tested on: MOLT-4 leukemia
K-562 leukemia = tested on: K-562 leukemia
COLO 205 colon = tested on: COLO 205 colon
M14 melanoma = tested on: M14 melanoma
SF-268 CNS = tested on: SF-268 CNS
LOX IMVI melanoma = tested on: LOX IMVI melanoma
MDA-MB-435 = tested on: MDA-MB-435
HS 578T breast = tested on: HS 578T breast
SN12C renal = tested on: SN12C renal
NCI-H460 lung = tested on: NCI-H460 lung
HCC-2998 colon = tested on: HCC-2998 colon
EKVX NSCLC = tested on: EKVX NSCLC
NCI-H522 lung = tested on: NCI-H522 lung
A498 renal = tested on: A498 renal

For `CCOP(=O)(OCC)C(C)(C)OC(=O)NC#N`, the TGI (T-47D breast) was greater than 100 µM, the TGI (SK-MEL-5 melanoma) was greater than 100 µM and the TGI (KM12 colon) was greater than 100 µM. The TGI (UO-31 renal) was greater than 100 µM, the TGI (A549 NSCLC) was greater than 100 µM and the TGI (SNB-19 CNS) was greater than 100 µM. For the same molecule, the TGI (BT-549 breast) was greater than 100 µM, the TGI (SK-OV-3 ovarian) was greater than 100 µM and the TGI (CAKI-1 renal) was greater than 100 µM. It also gave a TGI (786-0 renal) greater than 100 µM, a TGI (U251 CNS) greater than 100 µM and a TGI (SF-539 CNS) greater than 100 µM. For the same molecule, the TGI (MDA-N) was greater than 100 µM, the TGI (CCRF-CEM leukemia) was greater than 100 µM and the TGI (NCI-H23 lung) was greater than 100 µM. The TGI (MALME-3M melanoma) was greater than 100 µM, the TGI (SK-MEL-28 melanoma) was greater than 100 µM and the TGI (HOP-62 NSCLC) was greater than 100 µM. The TGI (MDA-MB-231 breast) was greater than 100 µM, the TGI (HCT-15 colon) was greater than 100 µM and the TGI (SNB-75 CNS) was greater than 100 µM. The TGI (OVCAR-8 ovarian) was greater than 100 µM, the TGI (RXF 393 renal) was greater than 100 µM and the TGI (SK-MEL-2 melanoma) was greater than 100 µM. The TGI (OVCAR-4 ovarian) was greater than 100 µM, the TGI (HCT-116 colon) was greater than 100 µM and the TGI (DU-145 prostate) was greater than 100 µM. For the same molecule, the TGI (MCF7 breast) was greater than 100 µM, the TGI (SW-620 colon) was greater than 100 µM and the TGI (NCI-H226 lung) was greater than 100 µM. The TGI (NCI/ADR-RES ovarian) was greater than 100 µM, the TGI (HL-60(TB) leukemia) was greater than 100 µM and the TGI (RPMI-8226 leukemia) was greater than 100 µM. The TGI (OVCAR-3 ovarian) was greater than 100 µM, the TGI (PC-3 prostate) was greater than 100 µM and the TGI (UACC-62 melanoma) was greater than 100 µM. It also gave a TGI (HOP-92 NSCLC) greater than 100 µM, a TGI (UACC-257 melanoma) greater than 100 µM and a TGI (HT29 colon) greater than 100 µM. For the same molecule, the TGI (OVCAR-5 ovarian) was greater than 100 µM, the TGI (TK-10 renal) was greater than 100 µM and the TGI (SF-295 CNS) was greater than 100 µM. The TGI (ACHN renal) was greater than 100 µM, the TGI (IGROV1 ovarian) was greater than 100 µM and the TGI (SR leukemia) was greater than 100 µM. It also gave a TGI (MOLT-4 leukemia) greater than 100 µM, a TGI (K-562 leukemia) greater than 100 µM and a TGI (COLO 205 colon) greater than 100 µM. For the same molecule, the TGI (M14 melanoma) was greater than 100 µM, the TGI (SF-268 CNS) was greater than 100 µM and the TGI (LOX IMVI melanoma) was greater than 100 µM. It also gave a TGI (MDA-MB-435) greater than 100 µM, a TGI (HS 578T breast) greater than 100 µM and a TGI (SN12C renal) greater than 100 µM. For the same molecule, the TGI (NCI-H460 lung) was greater than 100 µM, the TGI (HCC-2998 colon) was greater than 100 µM and the TGI (EKVX NSCLC) was greater than 100 µM.

Molecule `COCCNC1CCC2(SCCS2)c2[nH]c3ccccc3c21` (stereo unspecified) has a TGI (SK-MEL-5 melanoma) of 57.4 µM, a TGI (KM12 colon) of 40.5 µM and a TGI (A549 NSCLC) greater than 100 µM. For the same molecule, the TGI (SNB-19 CNS) was greater than 100 µM, the TGI (BT-549 breast) was 38 µM and the TGI (CAKI-1 renal) was greater than 100 µM. It also gave a TGI (786-0 renal) greater than 100 µM, a TGI (U251 CNS) greater than 100 µM and a TGI (SF-539 CNS) of 50.7 µM. It also gave a TGI (MDA-N) of 57.9 µM, a TGI (CCRF-CEM leukemia) of 88.3 µM and a TGI (NCI-H23 lung) greater than 100 µM. For the same molecule, the TGI (SK-MEL-28 melanoma) was greater than 100 µM, the TGI (HOP-62 NSCLC) was greater than 100 µM and the TGI (MDA-MB-231 breast) was 54.1 µM. It also gave a TGI (HCT-15 colon) greater than 100 µM, a TGI (SNB-75 CNS) greater than 100 µM and a TGI (OVCAR-8 ovarian) greater than 100 µM. The TGI (RXF 393 renal) was 40.4 µM, the TGI (SK-MEL-2 melanoma) was greater than 100 µM and the TGI (OVCAR-4 ovarian) was greater than 100 µM. The TGI (HCT-116 colon) was greater than 100 µM, the TGI (DU-145 prostate) was greater than 100 µM and the TGI (MCF7 breast) was 39.3 µM. It also gave a TGI (SW-620 colon) greater than 100 µM, a TGI (NCI-H226 lung) greater than 100 µM and a TGI (NCI/ADR-RES ovarian) greater than 100 µM. The TGI (HL-60(TB) leukemia) was 45.8 µM, the TGI (RPMI-8226 leukemia) was 41.4 µM and the TGI (OVCAR-3 ovarian) was 82.1 µM. It also gave a TGI (PC-3 prostate) greater than 100 µM, a TGI (HOP-92 NSCLC) of 50.3 µM and a TGI (UACC-257 melanoma) of 39.5 µM. It also gave a TGI (HT29 colon) greater than 100 µM, a TGI (OVCAR-5 ovarian) greater than 100 µM and a TGI (TK-10 renal) of 44.6 µM. It also gave a TGI (NCI-H522 lung) greater than 100 µM, a TGI (SF-295 CNS) greater than 100 µM and a TGI (ACHN renal) greater than 100 µM. For the same molecule, the TGI (IGROV1 ovarian) was greater than 100 µM, the TGI (SR leukemia) was 69.9 µM and the TGI (MOLT-4 leukemia) was greater than 100 µM. The TGI (K-562 leukemia) was greater than 100 µM, the TGI (COLO 205 colon) was 82.5 µM and the TGI (M14 melanoma) was 30.4 µM. For the same molecule, the TGI (SF-268 CNS) was greater than 100 µM, the TGI (LOX IMVI melanoma) was 36 µM and the TGI (MDA-MB-435) was 62.1 µM. For the same molecule, the TGI (HS 578T breast) was greater than 100 µM, the TGI (SN12C renal) was 91.9 µM and the TGI (NCI-H460 lung) was greater than 100 µM. For the same molecule, the TGI (HCC-2998 colon) was greater than 100 µM, the TGI (A498 renal) was 86.1 µM and the TGI (EKVX NSCLC) was greater than 100 µM.
